Among the data in patent publication US10214546B2, “Btk inhibitors” (MERCK SHARP & DOHME CORP., priority 2014, dated 2019) are IC50 values, retold here.

Where two headings read alike, the source gives them in different places.

For experiment [1], the target named is BTK enzyme (recombinant full-length BTK, hBTK) (Homo sapiens (Human), UniProt Q06187). Put plainly: BTK enzymatic activity LANCE TR-FRET assay. The following applies: 50 pM hBTK, 25 μM ATP, 2 μM biotin-A5-peptide; compound range 1 μM to 0.017 nM; read-out: BTK binding IC50. It counts as biochemical. Here is the method: Btk Enzyme Activity Assay Methods
Sequence of BTK enzyme (recombinant full-length BTK, hBTK) (Q06187 whole entry): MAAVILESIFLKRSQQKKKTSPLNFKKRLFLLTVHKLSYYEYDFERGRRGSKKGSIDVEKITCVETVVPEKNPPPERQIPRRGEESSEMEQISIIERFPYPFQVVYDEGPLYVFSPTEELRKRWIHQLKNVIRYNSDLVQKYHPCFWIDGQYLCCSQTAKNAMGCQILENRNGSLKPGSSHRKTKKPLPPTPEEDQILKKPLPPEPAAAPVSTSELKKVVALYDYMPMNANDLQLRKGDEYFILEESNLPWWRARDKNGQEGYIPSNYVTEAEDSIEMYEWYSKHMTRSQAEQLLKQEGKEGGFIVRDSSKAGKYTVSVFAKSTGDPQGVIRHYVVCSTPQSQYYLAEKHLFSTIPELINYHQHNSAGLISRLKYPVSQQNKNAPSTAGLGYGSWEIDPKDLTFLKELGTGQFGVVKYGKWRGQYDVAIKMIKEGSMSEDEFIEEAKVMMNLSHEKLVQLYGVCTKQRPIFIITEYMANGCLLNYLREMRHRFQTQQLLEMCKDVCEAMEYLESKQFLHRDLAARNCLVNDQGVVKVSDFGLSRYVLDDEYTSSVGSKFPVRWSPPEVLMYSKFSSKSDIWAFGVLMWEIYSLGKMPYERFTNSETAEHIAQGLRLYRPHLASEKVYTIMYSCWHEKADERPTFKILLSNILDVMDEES
BTK enzymatic activity was determined with the LANCE (Lanthanide Chelate Excite) TR-FRET (Time-resolved fluorescence resonance energy transfer) assay. […] Phosphorylation reactions were allowed to proceed for 120 minutes. […] After 60 minutes incubation with detection reagents, reaction plates were read on a PerkinElmer EnVision plate reader using standard TR-FRET protocol. […] IC50 values were determined by 4 parameter robust fit of TR-FRET ratio values vs. (Log10) compound concentrations.

For experiment [2], the system named is adenosine uptake into HeLa cells. In words: [3H]Adenosine uptake assay in HeLa cells. Conditions: [3H]adenosine accumulation in HeLa cells, compound range 10 μM to 0.032 nM, read-out: ADU inhibition IC50. It counts as cell-based. Here is the method:
Compounds are also screened in an adenosine uptake functional cellular assay using the protocol described below:
[^3H]Adenosine Uptake Assay Methods
Adenosine uptake activity was determined by monitoring the accumulation of tritiated adenosine into HeLa cells (ATCC catalog # CCL-2) using a PMT-based radiometric detection instrument. In this assay, the potency (IC50) of each compound was determined from a ten point (1:3 serial dilution; final compound concentration range in assay from 10 µM to […]) titration curve using the following outlined procedure. To each well of a 96-well CytoStar-T scintillating microplate (Perkin Elmer Catalog # RPNQ0163), 25 000 HeLa cells in 100 µL of growth medium comprising: Minimum Essential Media (Life Technologies Catalog #11095-080)+10% (v/v) foetal bovine serum (FBS; Sigma Aldrich Catalog # F2442) was added. These cells were incubated overnight at 37° C. in a humidified atmosphere with 5% (v/v) CO2. After this time the growth medium was removed and replaced with 40 μL assay medium comprising: Hanks balanced salts solution (HBSS; Thermo Fisher Catalog # SH30268.01)+5% (v/v) FBS. Compound stock solutions in DMSO were diluted in assay medium to 2.5× final compound concentration maintaining a constant DMSO concentration of 0.25% (v/v). 40 μL of compound in assay medium was dispensed into individual wells of the Cytostar-T plates and the plates were incubated for 30 minutes under ambient laboratory conditions. Following this incubation, 20 μL of 500 nM [^3H] adenosine (American Radiolabeled Chemicals Inc. […] The amount of radiolabel accumulation was then determined using a Perkin Elmer Topcount NXT microplate reader. In brief, HeLa cells adhere to the bottom of the Cytostar-T plate, uptake of [^3H]adenosine into these cells brings the radiolabel into sufficient proximity to excite the scintillant in the base of the plates. These events are captured by single PMT, time-resolved coincidence counting. IC50 values were determined by 4 parameter robust fit of counts per second values vs. (Log10) compound concentrations.

Regarding `CC(O)(c1ccc(-c2nc([C@@H]3CC[C@H]4CCC(=O)N4C3)n3ccnc(N)c23)cc1)c1cccnc1` (stereo partly drawn) [Example 18, (6R,8aS)-6-{8-amino-1-[4-(1-hydroxy-1-pyridin-3-ylethyl)phenyl]imidazo[1,5-a]pyrazin-3-yl}hexahydroindolizin-3(2H)-one], the IC50 amounted to 359 nM in experiment [1] and 10000 nM in experiment [2] (Homo sapiens, HeLa).
For `CC(O)(c1ccc(F)cc1)c1ccc(-c2nc([C@@H]3CC[C@H]4CCC(=O)N4C3)n3ccnc(N)c23)cc1` (stereo partly drawn) [Example 19, (6R,8aS)-6-(8-amino-1-{4-(1-(4-fluorophenyl)-1-hydroxyethyl]phenyl}imidazo[1,5-a]pyrazin-3-yl)hexahydroindolizin-3(2H)-one] the same measures were 170 nM and 2360 nM.
`C[C@](O)(c1cccc(C(F)(F)F)c1)c1ccc(-c2nc([C@@H]3CC[C@H]4CCC(=O)N4C3)n3ccnc(N)c23)c(CO)c1` [Example 20, (6R,8aS)-6-(8-amino-1-(4-((R)-1-hydroxy-1-(3-(trifluoromethyl)phenyl)ethyl)-2-(hydroxymethyl)phenyl)imidazo[1,5-a]pyrazin-3-yl)hexahydroindolizin-3(2H)-one]: the IC50 in experiment [1] is 230 nM; in experiment [2] (Homo sapiens, HeLa), 2570 nM.
Taken in the same sequence, the figures for `C[C@@](O)(c1cccc(C(F)(F)F)c1)c1ccc(-c2nc([C@@H]3CC[C@H]4CCC(=O)N4C3)n3ccnc(N)c23)c(CO)c1` [Example 21, (6R,8aS)-6-(8-amino-1-(4-((S)-1-hydroxy-1-(3-(trifluoromethyl)phenyl)ethyl)-2-(hydroxymethyl)phenyl)imidazo[1,5-a]pyrazin-3-yl)hexahydroindolizin-3(2H)-one] were 5.8 nM and 7480 nM.
As for `CCOc1cc(C(C)(O)c2cccc(C(F)(F)F)c2)cc(F)c1-c1nc([C@@H]2CC[C@H]3CCC(=O)N3C2)n2ccnc(N)c12` (stereo partly drawn) [Example 22, (6R,8aS)-6-(8-amino-1-(2-ethoxy-6-fluoro-4-(1-hydroxy-1-(3-(trifluoromethyl)phenyl)ethyl)phenyl)imidazo[1,5-a]pyrazin-3-yl)hexahydroindolizin-3(2H)-one], the IC50 was determined as 1.7 nM in experiment [1] and 3820 nM in experiment [2] (Homo sapiens, HeLa).
Regarding `CC(O)(c1ccccc1)c1ccc(-c2nc([C@@H]3CC[C@H]4CCC(=O)N4C3)n3ccnc(N)c23)c(F)c1` (stereo partly shown) [Example 24], the IC50 in experiment [1] was determined as 5.2 nM; in experiment [2] (Homo sapiens, HeLa), 2490 nM.
With `Nc1nccn2c([C@@H]3CC[C@H]4CCC(=O)N4C3)nc(-c3ccc([C@](O)(c4ccccc4)C(F)(F)F)cc3)c12` [Example 25, (6R,8aS)-6-(8-amino-1-{4-[(1R)-2,2,2-trifluoro-1-hydroxy-1-phenylethyl]phenyl}imidazo[1,5-a]pyrazin-3-yl)hexahydroindolizin-3(2H)-one], the IC50 stood at 1.8 nM in experiment [1] and 3830 nM in experiment [2] (Homo sapiens, HeLa).
Consider `Nc1nccn2c([C@@H]3CC[C@H]4CCC(=O)N4C3)nc(-c3ccc([C@@](O)(c4ccccc4)C(F)(F)F)cc3)c12` [Example 26, (6R,8aS)-6-(8-amino-1-{4-[(1S)-2,2,2-trifluoro-1-hydroxy-1-phenylethyl]phenyl}imidazo[1,5-a]pyrazin-3-yl)hexahydroindolizin-3(2H)-one], for which the IC50 in experiment [1] amounted to 156 nM; in experiment [2] (Homo sapiens, HeLa), 2610 nM.
For the compound `Nc1nccn2c([C@@H]3CC[C@H]4CCC(=O)N4C3)nc(-c3ccc(C(O)(c4cccc(C(F)(F)F)c4)C(F)(F)F)cc3)c12` (stereo partly drawn) [Example 27, (6R,8aS)-6-[8-amino-1-(4-{2,2,2-trifluoro-1-hydroxy-1-[3-(trifluoromethyl)phenyl]ethyl}phenyl)imidazo [1,5-a]pyrazin-3-yl]hexahydroindolizin-3(2H)-one], the IC50 in experiment [1] is 9.8 nM; in experiment [2] (Homo sapiens, HeLa), 1240 nM.
`Nc1nccn2c([C@@H]3CC[C@H]4CCC(=O)N4C3)nc(-c3ccc(C(O)(c4cccc(F)c4)C(F)(F)F)cc3)c12` (stereo partly drawn) [Example 29, (6R,8aS)-6-(8-amino-1-{4-[2,2,2-trifluoro-1-(3-fluorophenyl)-1-hydroxyethyl]phenyl}imidazo[1,5-a]pyrazin-3-yl)hexahydroindolizin-3(2H)-one]: the 50% inhibitory concentration (IC50) worked out at 6.9 nM in experiment [1] and 1990 nM in experiment [2] (Homo sapiens, HeLa).
Taken in the same sequence, the figures for `Nc1nccn2c([C@@H]3CC[C@H]4CCC(=O)N4C3)nc(-c3ccc(C(O)(c4ccccc4)C(F)(F)F)cc3F)c12` (stereo partly drawn) [Example 30, (6R,8aS)-6-{8-amino-1-[2-fluoro-4-(2,2,2-trifluoro-1-hydroxy-1-phenylethyl)phenyl)imidazo[1,5-a]pyrazin-3-yl}hexahydroindolizin-3(2H)-one] were 2.8 nM and 1310 nM.
As to `CC(O)(c1ccc(-c2nc([C@@H]3CC[C@H]4CCC(=O)N4C3)n3ccnc(N)c23)cc1)c1ccccc1C(F)(F)F` (stereo partly drawn) [Example 31, (6R,8aS)-6-[8-amino-1-(4-{1-hydroxy-1-[2-(trifluoromethyl)phenyl]ethyl}phenyl)imidazo [1,5-a]pyrazin-3-yl]hexahydroindolizin-3(2H)-one], the IC50 stood at 78.3 nM in experiment [1] and 4810 nM in experiment [2] (Homo sapiens, HeLa).
Turning to `Cn1nc(C(C)(O)c2ccc(-c3nc([C@@H]4CC[C@H]5CCC(=O)N5C4)n4ccnc(N)c34)cc2)cc1C(F)(F)F` (stereo partly drawn) [Example 35, (6R,8aS)-6-[8-amino-1-(4-{1-hydroxy-1-[1-methyl-5-(trifluoromethyl)-1H-pyrazol-3-yl]ethyl}phenyl)imidazo [1,5-a]pyrazin-3-yl]hexahydroindolizin-3(2H)-one], the IC50 in experiment [1] is 218 nM; in experiment [2] (Homo sapiens, HeLa), 2230 nM.
For `C[C@](O)(c1ccc(-c2nc([C@@H]3CC[C@H]4CCC(=O)N4C3)n3ccnc(N)c23)cc1)c1cc(C(F)(F)F)ccn1` [Example 36] the same measures were 1000 nM and 704 nM.
Regarding `C[C@@](O)(c1ccc(-c2nc([C@@H]3CC[C@H]4CCC(=O)N4C3)n3ccnc(N)c23)cc1)c1cc(C(F)(F)F)ccn1` [Example 37, (6R,8aS)-6-[8-amino-1-(4-{(1R)-1-hydroxy-1-[4-(trifluoromethyl)pyridin-2-yl]ethyl}phenyl)imidazo[1,5-a]pyrazin-3-yl]hexahydroindolizin-3(2H)-one], the concentration for half-maximal inhibition (IC50) in experiment [1] worked out at 255 nM; in experiment [2] (Homo sapiens, HeLa), 3470 nM.
With `C[C@@](O)(c1ccc(-c2nc([C@@H]3CC[C@H]4CCC(=O)N4C3)n3ccnc(N)c23)cc1)c1cccc(C2CC2)c1` [Example 38, (6R,8aS)-6-(8-amino-1-{4-[(1R)-1-(3-cyclopropylphenyl)-1-hydroxyethyl]phenyl}imidazo[1,5-a]pyrazin-3-yl)hexahydroindolizin-3(2H)-one], the IC50 is 0.07 nM in experiment [1] and 1840 nM in experiment [2] (Homo sapiens, HeLa).
As for `CC(C)(C)c1cccc([C@@](C)(O)c2ccc(-c3nc([C@@H]4CC[C@H]5CCC(=O)N5C4)n4ccnc(N)c34)cc2)c1` [Example 39, (6R,8aS)-6-(8-amino-1-{4-[(1S)-1-(3-tert-butylphenyl)-1-hydroxyethyl]phenyl}imidazo[1,5-a]pyrazin-3-yl)hexahydroindolizin-3(2H)-one], the IC50 is 9.6 nM in experiment [1] and 608 nM in experiment [2] (Homo sapiens, HeLa).
As for `CC(C)(C)c1cccc([C@](C)(O)c2ccc(-c3nc([C@@H]4CC[C@H]5CCC(=O)N5C4)n4ccnc(N)c34)cc2)c1` [Example 40, (6R,8aS)-6-(8-amino-1-{4-[(1R)-1-(3-tert-bulylphenyl)-1-hydroxyethyl]phenyl}imidazo[1,5-a]pyrazin-3-yl)hexahydroindolizin-3(2H)-one], the IC50 amounted to 0.27 nM in experiment [1] and 1760 nM in experiment [2] (Homo sapiens, HeLa).
As to `C[C@](O)(c1ccc(-c2nc([C@@H]3CC[C@H]4CCC(=O)N4C3)n3ccnc(N)c23)cc1)c1cccc(Cl)c1` [Example 41, (6R,8aS)-6-(8-amino-1-{4-[(1S)-1-(3-chlorophenyl)-1-hydroxyethyl]phenyl}imidazo[1,5-a]pyrazin-3-yl)hexahydroindolizin-3(2H)-one], the IC50 in experiment [1] stood at 116 nM; in experiment [2] (Homo sapiens, HeLa), 588 nM.
Turning to `Cc1cc(-c2nc([C@@H]3CC[C@H]4CCC(=O)N4C3)n3ccnc(N)c23)ccc1C(C)(O)c1cccc(C(F)(F)F)c1` (stereo partly drawn) [Example 42, (6R,8aS)-6-[8-amino-1-(4-{1-hydroxy-1-[3-(trifluoromethyl)phenyl]ethyl}-3-methylphenyl)imidazo [1,5-a]pyrazin-3-yl]hexahydroindolizin-3(2H)-one], the IC50 in experiment [1] came out at 1000 nM; in experiment [2], 3230 nM.
